# Data reported in the supplement of paper PMC11208160.
# Test: recombinant barcode read abundance after kanamycin selection (control-corrected) (log10(CPM+1)); higher = more efficient recombination; sequences stand for … in AGTGCAGAGAAAATCGGCCAGTTTTCTCTGCCTGCAGTCCGCATGCCGT…AGATTTATGCAGCGGACTGCCTTTCTCCCAAAGTGATAAACCGGACAGTATCATGGACCGGTTTTCCCGGTAATCCGTATTTGCAAGGTTGGTTTCACT; site = the 11-nt target
# Method in brief: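 Targets were screened in pooled form in E. coli against IS621 bridge RNA target-binding loops. Recombination efficiency is based on barcode counts at recombinant junctions in counts per million, averaged and corrected for the control. Numbers are shown as log10(CPM+1), with duplicate plates on chloramphenicol/ampicillin LB agar (control) or chloramphenicol/ampicillin/kanamycin with 0.1 mM IPTG.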
# 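Note: IS621 recombinase and bridge RNA in Escherichia coli cells.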
sequence,measurement,value
GTCTGATCTTGGGTTCTAACCTGTTGCCT (site GTCTAATCTAG),recombinant barcode read abundance (log10),0.0854
GTCTGATCTTGGGTTCTAACCTGTTGCCT (site GTCTCATCTAG),recombinant barcode read abundance (log10),0.113
GTCTGATCTTGGGTTCTAACCTGTTGCCT (site GTCTGATCTAG),recombinant barcode read abundance (log10),0.97
GTCTGATCTTGGGTTCTAACCTGTTGCCT (site GTCTTATCTAG),recombinant barcode read abundance (log10),0.186
GTCTGCCCTTGGGTTCTAACCTGTTGCCT (site GACTGCCCTAG),recombinant barcode read abundance (log10),0.181
GTCTGCCCTTGGGTTCTAACCTGTTGCCT (site GCCTGCCCTAG),recombinant barcode read abundance (log10),0.191
GTCTGCCCTTGGGTTCTAACCTGTTGCCT (site GGCTGCCCTAG),recombinant barcode read abundance (log10),0.239
GTCTGCCCTTGGGTTCTAACCTGTTGCCT (site GTCTGCCCTAG),recombinant barcode read abundance (log10),1.73
GTCTTAACTTGGGTTCTAACCTGTTGCCG (site GTCTTAACTCG),recombinant barcode read abundance (log10),0.338
GTCTTAACTTGGGTTCTAACCTGTTGCCG (site GTCTTGACTTG),recombinant barcode read abundance (log10),0.0525
GTGAACTCTTGGGTTCTAACCTGTTGCCT (site GTAAACTCTAG),recombinant barcode read abundance (log10),1.56
GTGAACTCTTGGGTTCTAACCTGTTGCCT (site GTCAACTCTAG),recombinant barcode read abundance (log10),0.0453
GTGAACTCTTGGGTTCTAACCTGTTGCCT (site GTGAACTCTAG),recombinant barcode read abundance (log10),1.85
GTGAACTCTTGGGTTCTAACCTGTTGCCT (site GTTAACTCTAG),recombinant barcode read abundance (log10),0.542
GTGAGATCTTGGGTTCTAACCTGTTGCCT (site GTGAGATCTAG),recombinant barcode read abundance (log10),1.06
GTGAGATCTTGGGTTCTAACCTGTTGCCT (site GTGGAATCTAG),recombinant barcode read abundance (log10),0.079
GTGAGCCCTTGGGTTCTAACCTGTTGCCG (site GTGAGCCCTCG),recombinant barcode read abundance (log10),1.01
GTGAGCCCTTGGGTTCTAACCTGTTGCCG (site GTGCGCTCTCG),recombinant barcode read abundance (log10),0.0474
GTGAGTCCTTGGGTTCTAACCTGTTGCGG (site GTAAGTCCTTC),recombinant barcode read abundance (log10),0.24
GTGAGTCCTTGGGTTCTAACCTGTTGCGG (site GTGAGTCCTCC),recombinant barcode read abundance (log10),2.42
GTGATGTCTTGGGTTCTAACCTGTTGCCT (site GAGATGTCTAG),recombinant barcode read abundance (log10),0.701
GTGATGTCTTGGGTTCTAACCTGTTGCCT (site GCGATGTCTAG),recombinant barcode read abundance (log10),0.321
GTGATGTCTTGGGTTCTAACCTGTTGCCT (site GGGATGTCTAG),recombinant barcode read abundance (log10),0.279
GTGATGTCTTGGGTTCTAACCTGTTGCCT (site GTGATGTCTAG),recombinant barcode read abundance (log10),2.17
GTGCACTCTTGGGTTCTAACCTGTTGCGG (site GTGCACACTCC),recombinant barcode read abundance (log10),0
GTGCACTCTTGGGTTCTAACCTGTTGCGG (site GTGCACTCTCC),recombinant barcode read abundance (log10),2.13
GTGCTAACTTGGGTTCTAACCTGTTGCCA (site ATGCTAACTAG),recombinant barcode read abundance (log10),0.0637
GTGCTAACTTGGGTTCTAACCTGTTGCCA (site GTGCTAACTTG),recombinant barcode read abundance (log10),0.626
GTGGAAGCTTGGGTTCTAACCTGTTGCCA (site GTGAAAGCTTG),recombinant barcode read abundance (log10),0.158
GTGGAAGCTTGGGTTCTAACCTGTTGCCA (site GTGGAAGCTTG),recombinant barcode read abundance (log10),0.238
GTGGAGTCTTGGGTTCTAACCTGTTGCCT (site GTAGAGTCTAA),recombinant barcode read abundance (log10),0.577
GTGGAGTCTTGGGTTCTAACCTGTTGCCT (site GTGGAGTCTAG),recombinant barcode read abundance (log10),2.5
GTGGGAACTTGGGTTCTAACCTGTTGCTT (site GTGGGAACTAA),recombinant barcode read abundance (log10),1.97
GTGGGAACTTGGGTTCTAACCTGTTGCTT (site TCCTATCCTTC),recombinant barcode read abundance (log10),0.0252
GTGGTACCTTGGGTTCTAACCTGTTGCAT (site ACACGGACTTA),recombinant barcode read abundance (log10),0.0235
GTGGTACCTTGGGTTCTAACCTGTTGCAT (site GTGGTACCTAT),recombinant barcode read abundance (log10),2.48
